Source: ChEMBL document CHEMBL3785016, “Design, synthesis, and anti-breast cancer evaluation of new triarylethylene analogs bearing short alkyl- and polar amino-/amido-ethyl chains” (Bioorg Med Chem Lett, 2016)
Activity calls are given as the source filed them. The calls are words filed in the database; no cut-off is given here.

Legend:
MDA-MB-231 [1] = assay: Cytotoxicity against human ER-negative MDA-MB-231 cells assessed as cell viability after 72 hrs by MTT assay; type: functional, cell-based; settings: for IC50: MDA-MB-231, 72 h
MCF7 [2] = assay: Cytotoxicity against human ER-positive MCF7 cells assessed as cell viability after 72 hrs by MTT assay; type: functional, cell-based
MDA-MB-231 [3] = assay: Inhibition of MMP9 expression in human ER-negative MDA-MB-231 cells at 10 and 25 uM after 24 hrs by western blotting; type: functional, cell-based
MCF7 [4] = assay: Inhibition of caveolin-1 expression in human ER-positive MCF7 cells at 10 and 25 uM after 24 hrs by western blotting; type: functional, cell-based
MCF7 [5] = assay: Inhibition of MMP9 expression in human ER-positive MCF7 cells at 10 and 25 uM after 24 hrs by western blotting; type: functional, cell-based
MDA-MB-231 [6] = assay: Inhibition of caveolin-1 expression in human ER-negative MDA-MB-231 cells at 10 and 25 uM after 24 hrs by western blotting; type: functional, cell-based
MDA-MB-231 [7] = assay: Inhibition of c-Myc expression in human ER-negative MDA-MB-231 cells at 10 and 25 uM after 24 hrs by western blotting; type: functional, cell-based
MCF7 [8] = assay: Inhibition of c-Myc expression in human ER-positive MCF7 cells at 10 and 25 uM after 24 hrs by western blotting; type: functional, cell-based
MDA-MB-231 [9] = assay: Antimigratory activity in human ER-negative MDA-MB-231 cells assessed as cell migration level at 1 uM after 24 hrs by scratch assay; type: functional
MDA-MB-231 [10] = assay: Inhibition of MMP9 expression in human ER-negative MDA-MB-231 cells after 24 hrs by western blotting; type: functional, cell-based
MDA-MB-231 [11] = assay: Inhibition of caveolin-1 expression in human ER-negative MDA-MB-231 cells after 24 hrs by western blotting; type: functional, cell-based
MDA-MB-231 [12] = assay: Inhibition of cell invasion in human ER-negative MDA-MB-231 cells after 24 hrs by Boyden chamber transwell invasion assay; type: functional, cell-based
MDA-MB-231 [13] = assay: Antimigratory activity in human ER-negative MDA-MB-231 cells assessed as cell migration level at 0.5 uM after 24 hrs by scratch assay; type: functional
MCF7 [14] = assay: Inhibition of MMP9 expression in human ER-positive MCF7 cells after 24 hrs by western blotting; type: functional, cell-based
MDA-MB-231 [15] = assay: Inhibition of c-Myc expression in human ER-negative MDA-MB-231 cells after 24 hrs by western blotting; type: functional, cell-based
MCF7 [16] = assay: Inhibition of caveolin-1 expression in human ER-positive MCF7 cells after 24 hrs by western blotting; type: functional, cell-based
MCF7 [17] = assay: Inhibition of c-Myc expression in human ER-positive MCF7 cells after 24 hrs by western blotting; type: functional, cell-based
[18] = Homo sapiens, MCF7, 72 h, read-out: IC50

| Structure (SMILES) | IC50 (MDA-MB-231 [1]) [µM] | IC50 (MCF7 [2]; [18]) [µM] | also measured |
| --- | --- | --- | --- |
| COc1ccc(/C(=C(/CCNC(=O)Oc2ccccc2)c2ccccc2)c2ccccc2)cc1 |  |  | Activity (MDA-MB-231 [1]): inactive; IC50 (MCF7 [2]; mcf7): Not Active |
| COc1ccc(/C(=C(/CCNC(=O)C(=O)NC2CCCCC2)c2ccccc2)c2ccccc2)cc1 | 12.2 | 12.1 | inhibition (MDA-MB-231 [3]): Active; inhibition (MCF7 [4]): inactive; inhibition (MCF7 [5]): Active; inhibition (MDA-MB-231 [6]): inactive; inhibition (MDA-MB-231 [7]): Active; inhibition (MCF7 [8]): Active; Activity (MDA-MB-231 [9]): inactive |
| COc1ccc(/C(=C(/CCNC(=O)C(=O)NCc2ccccc2)c2ccccc2)c2ccccc2)cc1 | 11.5 | > 50 | inhibition (MDA-MB-231 [3]): Active; inhibition (MCF7 [4]): inactive; inhibition (MCF7 [5]): Active; inhibition (MDA-MB-231 [6]): inactive; inhibition (MDA-MB-231 [7]): Active; inhibition (MCF7 [8]): Active; Activity (MDA-MB-231 [9]): inactive |
| COc1ccc(/C(=C(/CCNC(=O)C(=O)N2CCCC2)c2ccccc2)c2ccccc2)cc1 | 48.6 | > 50 |  |
| COc1ccc(/C(=C(/CCNC(=O)C(=O)N2CCOCC2)c2ccccc2)c2ccccc2)cc1 | 20 | 43.4 |  |
| CCOC(=O)C(=O)NCC/C(=C(\c1ccccc1)c1ccc(OC)cc1)c1ccccc1 | > 50 | > 50 |  |
| COc1ccc(/C(=C(/CCN=[N+]=[N-])c2ccccc2)c2ccccc2)cc1 |  |  | Activity (MDA-MB-231 [1]): inactive; IC50 (MCF7 [2]; mcf7): Not Active |
| COc1ccc(/C(=C(/CCCl)c2ccccc2)c2ccccc2)cc1 | > 50 | > 50 |  |
| COc1ccc(/C(=C(/CCNC(=O)N2CCCC2)c2ccccc2)c2ccccc2)cc1 | > 50 | > 50 |  |
| COc1ccc(/C(=C(/CCNC(=O)NC2CCCCC2)c2ccccc2)c2ccccc2)cc1 | > 50 | 37.2 |  |
| COc1ccc(/C(=C(/CCNC(=O)N2CCCCC2)c2ccccc2)c2ccccc2)cc1 | > 50 | > 50 |  |
| OCCOc1ccc(/C(=C(/CCCl)c2ccccc2)c2ccccc2)cc1 [OSPEMIFENE] | > 50 | > 50 | Activity (MDA-MB-231 [9]): inactive |
| CCN(CC)C(=O)NCC/C(=C(\c1ccccc1)c1ccc(OC)cc1)c1ccccc1 | 40.7 | > 50 |  |
| COc1ccc(/C(=C(/CCNC(=O)NCc2ccccc2)c2ccccc2)c2ccccc2)cc1 | > 50 | > 50 |  |
| COc1ccc(/C(=C(/CCNC(=O)N2CCOCC2)c2ccccc2)c2ccccc2)cc1 | 42.8 | > 50 |  |
| COc1ccc(/C(=C(/CCNC(=O)C(=O)N2CCCCC2)c2ccccc2)c2ccccc2)cc1 | > 50 | > 50 |  |
| COc1ccc(/C(=C(/CCN)c2ccccc2)c2ccccc2)cc1 |  |  | inhibition (MDA-MB-231 [10]): Dose-dependent effect; inhibition (MDA-MB-231 [11]): Dose-dependent effect; inhibition (MDA-MB-231 [12]): Dose-dependent effect; Activity (MDA-MB-231 [13]): 60%; inhibition (MCF7 [14]): Dose-dependent effect; inhibition (MDA-MB-231 [15]): Dose-dependent effect; Activity (MDA-MB-231 [9]): 25%; inhibition (MCF7 [16]): Dose-dependent effect; inhibition (MCF7 [17]): Dose-dependent effect |
